Measured values published in patent US8133849B2, “Herbicidal compounds” (Syngenta Limited, priority 2007, dated 2012).

Experiments:
Assay in all cases: Example B2 herbicidal action, post-emergence, pots in glasshouse, damage score 0-10
Format in all cases: in vivo
Conditions in all cases: application post-emergence, rate 1000 g/ha, evaluated after 13 days
Setaria faberi = tested on: Setaria faberi
Procedure: (§1) Seeds of a variety of test species were sown in standard soil in pots. After 8 days cultivation (post-emergence) under controlled conditions in a glasshouse (at 24/16° C., day/night; 14 hours light; 65% humidity), the plants were sprayed with an aqueous spray solution derived from the formulation of the technical active ingredient in acetone/water (50:50) solution containing 0.5% Tween 20 (polyoxyethelyene sorbitan monolaurate, CAS RN 9005-64-5). The test plants were then grown in a glasshouse under controlled conditions in a glasshouse (at 24/16° C., day/night; 14 hours light; 65% humidity) and watered twice daily. After 13 days, the test was evaluated (10=total damage to plant; 0=no damage to plant).

Ipomea hederaceae = tested on: Ipomea hederaceae
Procedure: as §1

Echinochloa crus-galli = tested on: Echinochloa crus-galli
Procedure: as §1

Amaranthus retroflexus = tested on: Amaranthus retroflexus
Procedure: as §1

Solanum nigrum = tested on: Solanum nigrum
Procedure: as §1

| SMILES | SETFA damage score (10=total damage to plant; 0=no damage to plant) (Setaria faberi) | IPOHE damage score (10=total damage to plant; 0=no damage to plant) (Ipomea hederaceae) | ECHCG damage score (10=total damage to plant; 0=no damage to plant) (Echinochloa crus-galli) | AMARE damage score (10=total damage to plant; 0=no damage to plant) (Amaranthus retroflexus) | SOLNI damage score (10=total damage to plant; 0=no damage to plant) (Solanum nigrum) |
| --- | --- | --- | --- | --- | --- |
| CCN1c2nccnc2C(OC(=O)C(C)(C)C)=C(c2cc(C(F)(F)F)ccc2Br)S1(=O)=O [Compound C69] | 0 | 7 | 2 | 4 | 6 |
| CCSC(=O)OC1=C(c2cc(Cl)ccc2C(F)(F)F)S(=O)(=O)N(CC(F)F)c2nccnc21 [Compound C112] | 6 | 9 | 6 | 10 | 10 |
| CC(C)C(=O)OC1=C(c2ccccc2C(F)(F)F)S(=O)(=O)N(CCCl)c2nccnc21 [Compound C121] | 2 | 1 | 0 | 0 | 5 |
| O=S1(=O)C(c2cccc(C(F)(F)F)c2Cl)=C(O)c2nccnc2N1CC(F)F [Compound D37] | 5 | 10 | 3 | 10 | 9 |
| CC(C)C(=O)OC1=C(c2c(Cl)ccc(Cl)c2Cl)S(=O)(=O)N(CC(F)F)c2nccnc21 [Compound C38] | 9 | 10 | 9 | 9 | 10 |
| CCN1c2nccnc2C(O)=C(c2c(C(F)(F)F)cccc2C(F)(F)F)S1(=O)=O [Compound D43] | 4 | 8 | 3 | 7 | 8 |
| C=C(C)CN1c2nccnc2C(OC(=O)C(C)(C)C)=C(c2cccc(Cl)c2Cl)S1(=O)=O [Compound C140] | 0 | 2 | 0 | 0 | 2 |
| CCN1c2nccnc2C(O)=C(c2cccc(C(F)(F)F)c2Cl)S1(=O)=O [Compound D38] | 0 | 5 | 1 | 9 | 8 |
| CC(C)C(=O)OC1=C(c2c(C(F)(F)F)ccc(Cl)c2Cl)S(=O)(=O)N(CC(F)F)c2nccnc21 [Compound C134] | 4 | 3 | 5 | 8 | 8 |
| CC(C)(C)C(=O)OC1=C(c2ccc(-c3ccc(Cl)cc3F)cc2Cl)S(=O)(=O)N(CC(F)F)c2nccnc21 [Compound C142] | 0 | 3 | 1 | 4 | 6 |
| Cc1ccc(C(F)(F)F)c(C2=C(OC(=O)C(C)C)c3nccnc3N(CC(F)F)S2(=O)=O)c1 [Compound C146] | 2 | 9 | 4 | 8 | 7 |
| CC(C)C(=O)OC1=C(c2cc(Cl)ccc2C(F)(F)F)S(=O)(=O)N(CC(F)F)c2nccnc21 [Compound C113] | 6 | 9 | 7 | 8 | 10 |
